Assay results taken from patent publication US9802960B2 (MILLENNIUM PHARMACEUTICALS, INC., priority 2014, dated 2017).

Target: Human VPS34 (Homo sapiens (Human), UniProt Q8NEB9)
Test: Human VPS34 enzyme assay (Adapta TR-FRET)
Assay type: biochemical
Settings: compound concentration 1.11 μM

Human VPS34, sequence (Q8NEB9 whole entry): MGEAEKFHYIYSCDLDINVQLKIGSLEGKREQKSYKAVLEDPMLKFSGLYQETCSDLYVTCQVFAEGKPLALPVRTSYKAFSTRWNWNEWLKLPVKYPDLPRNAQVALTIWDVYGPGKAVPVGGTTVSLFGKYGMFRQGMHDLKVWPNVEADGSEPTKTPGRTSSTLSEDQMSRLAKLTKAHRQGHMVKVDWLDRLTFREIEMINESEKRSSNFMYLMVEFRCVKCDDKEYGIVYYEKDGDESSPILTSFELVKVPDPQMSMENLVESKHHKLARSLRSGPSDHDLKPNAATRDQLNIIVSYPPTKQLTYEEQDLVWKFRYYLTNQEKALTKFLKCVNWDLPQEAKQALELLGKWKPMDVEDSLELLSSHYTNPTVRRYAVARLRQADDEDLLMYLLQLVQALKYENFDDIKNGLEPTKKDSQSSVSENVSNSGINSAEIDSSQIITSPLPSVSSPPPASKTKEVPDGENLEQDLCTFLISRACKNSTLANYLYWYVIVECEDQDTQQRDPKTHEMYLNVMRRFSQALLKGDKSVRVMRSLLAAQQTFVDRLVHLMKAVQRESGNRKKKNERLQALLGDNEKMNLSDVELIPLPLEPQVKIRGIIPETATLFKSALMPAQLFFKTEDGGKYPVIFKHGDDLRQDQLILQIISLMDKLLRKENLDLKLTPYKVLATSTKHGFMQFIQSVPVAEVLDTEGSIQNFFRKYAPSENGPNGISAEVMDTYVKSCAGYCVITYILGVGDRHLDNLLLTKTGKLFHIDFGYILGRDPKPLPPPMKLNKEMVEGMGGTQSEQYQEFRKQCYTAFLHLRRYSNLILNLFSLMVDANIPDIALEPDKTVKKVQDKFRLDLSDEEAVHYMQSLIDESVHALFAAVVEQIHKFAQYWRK

With `CC(=O)Nc1cc(-c2ccnc(Nc3ccnc(C4CC4)n3)c2)cn2nccc12` [Compound I-371, N-(6-{2-[(2-cyclopropylpyrimidin-4-yl)amino]pyridin-4-yl}pyrazolo[1,5-a]pyridin-4-yl)acetamide] the “Percent Inhibition” value was greater than 99%.
In the case of `CC(=O)Nc1cc(-c2cnc(Cl)c(NS(=O)(=O)N(C)C)c2)ccn1` [Compound I-372, N-{6-chloro-5-[(dimethylsulfamoyl)amino]-3,4′-bipyridin-2′-yl}acetamide], the “Percent Inhibition” value is reported as greater than 99%.

Same assay, conditions: compound concentration 1.11 μM; read-out: Percent Inhibition

Point of comparison: `CC(=O)Nc1cc(-c2cnc(Cl)c(NS(=O)(=O)c3ccc(C4CC4)cc3F)c2C)ccn1` [Compound I-335, N-(6-chloro-5-{[(4-cyclopropyl-2-fluorophenyl)sulfonyl]amino}-4-methyl-3,4′-bipyridin-2′-yl)acetamide], inhibition at 1.11 µM 92%. Against it:
- CC(=O)Nc1cc(-c2cnc(Cl)c(NS(=O)(=O)c3ccc(C(F)(F)F)cc3Cl)c2C)ccn1 [Compound I-333, N-(6-chloro-5-(2-chloro-4-(trifluoromethyl)phenylsulfonamido)-4-methyl-[3,4′-bipyridin]-2′-yl)acetamide] — higher, > 99%
- CC(=O)Nc1cc(-c2cnc3c(c2)S(=O)(=O)N[C@@H](c2ccccc2)CO3)ccn1 [Compound I-334, (S)-N-[4-(1,1-dioxido-3-phenyl-3,4-dihydro-2H-pyrido[2,3-b][1,4,5]oxathiazepin-8-yl)pyridin-2-yl]acetamide] — lower, 82%
- Cc1nccc(Nc2cc(-c3cncc(C(C)Oc4ccccc4Cl)c3)ccn2)n1 (stereo not drawn) [Compound I-336, 5-[1-(2-chlorophenoxy)ethyl]-N-(2-methylpyrimidin-4-yl)-3,4′-bipyridin-2′-amine] — higher, 96%
- CC(=O)Nc1cc(-c2cnc(N)c(N3CCCC3=O)c2)ccn1 [Compound I-337, N-[6-amino-5-(2-oxopyrrolidin-1-yl)-3,4′-bipyridin-2′-yl]acetamide] — lower, 52%
- CC(=O)Nc1cc(-c2cncc(S(=O)(=O)NC3CC3)c2)ccn1 [Compound I-338, N-[5-(cyclopropylsulfamoyl)-3,4′-bipyridin-2′-yl]acetamide] — higher, > 99%
- CC(=O)Nc1cc(-c2cnc(C)c(NS(=O)(=O)c3cccc(C)c3F)c2)ccn1 [Compound I-339, N-(5-{[(2-fluoro-3-methylphenyl)sulfonyl]amino}-6-methyl-3,4′-bipyridin-2′-yl)acetamide] — higher, 98%
- CC(=O)Nc1cc(-c2cc(NS(=O)(=O)c3ccc(F)cc3F)c3ncnn3c2)ccn1 [Compound I-340, N-[4-(8-{[(2,4-difluorophenyl)sulfonyl]amino}[1,2,4]triazolo[1,5-a]pyridin-6-yl)pyridin-2-yl]acetamide] — lower, 91%
- CC(=O)Nc1cc(-c2cnc(C)c(N3CCCN(C)S3(=O)=O)c2)ccn1 [Compound I-343, N[6-methyl-5-(6-methyl-1,1-dioxido-1,2,6-thiadiazinan-2-yl)-3,4′-bipyridin-2′-yl]acetamide] — higher, > 99%
- COc1ncc(-c2ccnc(NC(C)=O)c2)cc1S(=O)(=O)Nc1ccc(Cl)cc1Cl [Compound I-344, N-{5-[(2,4-dichlorophenyl)sulfamoyl]-6-methoxy-3,4′-bipyridin-2′-yl}acetamide] — higher, > 99%
- Cc1nccc(Nc2cc(-c3cnc(C)c(C(=O)N(C)c4ccc(F)cc4F)c3)ccn2)n1 [Compound I-346, N-(2,4-difluorophenyl)-N,6-dimethyl-2′-[(2-methylpyrimidin-4-yl)amino]-3,4′-bipyridine-5-carboxamide] — higher, 95%
- COc1ncc(-c2ccnc(NC(C)=O)c2)cc1NC(=O)c1ccc(F)cc1F [Compound I-347, N-(2′-acetamido-6-methoxy-3,4′-bipyridin-5-yl)-2,4-difluorobenzamide] — lower, 22%
- CC(=O)Nc1cc(-c2cncc(NS(=O)(=O)N(C)C)c2)ccn1 [Compound I-348, N-{5-[(dimethylsulfamoyl)amino]-3,4′-bipyridin-2′-yl}acetamide] — higher, > 99%
- Cc1nccc(Nc2cc(-c3cncc(C(C)OCc4ccccn4)c3)ccn2)n1 (stereo not drawn) [Compound I-349, N-(2-methylpyrimidin-4-yl)-5-[1-(pyridin-2-ylmethoxy)ethyl]-3,4′-bipyridin-2′-amine] — higher, 94%
- CCCCN(CCCC)S(=O)(=O)Nc1cc(-c2ccnc(NC(C)=O)c2)cnc1C [Compound I-350, N-{5-[(dibutylsulfamoyl)amino]-6-methyl-3,4′-bipyridin-2′-yl}acetamide] — higher, > 99%
- CC(=O)Nc1cc(-c2cnc(C)c(N3CCNS3(=O)=O)c2)ccn1 [Compound I-352, N-[5-(1,1-dioxido-1,2,5-thiadiazolidin-2-yl)-6-methyl-3,4′-bipyridin-2′-yl]acetamide] — the same, 92%
- CC(=O)Nc1cc(-c2cnc(C)c(S(=O)(=O)Nc3ccc(F)cc3F)c2)ccn1 [Compound I-353, N-(5-(N-(2,4-difluorophenyl)sulfamoyl)-6-methyl-[3,4′-bipyridin]-2′-yl)acetamide] — higher, > 99%
- CC(=O)Nc1cc(-c2cnc(Cl)c(NS(=O)(=O)c3c(Cl)cccc3Cl)c2C)ccn1 [Compound I-354, N-(6-chloro-5-{[(2,6-dichlorophenyl)sulfonyl]amino}-4-methyl-3,4′-bipyridin-2′-yl)acetamide] — higher, 98%
- Cc1c(-c2ccnc(Nc3ccnc(C4CC4)n3)c2)cnc(Cl)c1N [Compound I-355, 6-chloro-N~2~′-(2-cyclopropylpyrimidin-4-yl)-4-methyl-3,4′-bipyridine-2′,5-diamine] — lower, 91%
- CC(=O)Nc1cc(-c2cnc(C)c(NS(=O)(=O)c3ccc(C#N)cc3F)c2)ccn1 [Compound I-356, N-(5-{[(4-cyano-2-fluorophenyl)sulfonyl]amino}-6-methyl-3,4′-bipyridin-2′-yl)acetamide] — higher, > 99%
- CC(=O)Nc1cc(-c2cnc(C)c(N3CC(NCc4ccccc4)CS3(=O)=O)c2)ccn1 (stereo not drawn) [Compound I-357, N-{5-[4-(benzylamino)-1,1-dioxidoisothiazolidin-2-yl]-6-methyl-3,4′-bipyridin-2′-yl}acetamide] — higher, > 99%
- COc1ncc(-c2ccnc(NC(C)=O)c2)cc1S(=O)(=O)Nc1cc(F)ccc1F [Compound I-358, N-{5-[(2,5-difluorophenyl)sulfamoyl]-6-methoxy-3,4′-bipyridin-2′-yl}acetamide] — higher, > 99%
- CC(=O)Nc1cc(-c2cnc(C)c(OS(=O)(=O)N(C)C)c2)ccn1 [Compound I-359, 2′-acetamido-6-methyl-3,4′-bipyridin-5-yl dimethylsulfamate] — higher, > 99%
- Cc1c(-c2ccnc(Nc3ccnc(C4CC4)n3)c2)cnc(Cl)c1C(=O)N1CCC1 [Compound I-361, azetidin-1-yl(6-chloro-2′-((2-cyclopropylpyrimidin-4-yl)amino)-4-methyl-[3,4′-bipyridin]-5-yl)methanone] — lower, 90%
- CC(=O)Nc1cc(-c2cnc(Cl)c(NS(=O)(=O)c3ccc(C#N)cc3Cl)c2C)ccn1 [Compound I-362, N-(6-chloro-5-{[(2-chloro-4-cyanophenyl)sulfonyl]amino}-4-methyl-3,4′-bipyridin-2′-yl)acetamide] — higher, 95%
- Cc1nccc(Nc2cc(-c3cnc(C)c(OCc4ccccc4)c3)ccn2)n1 [Compound I-363, 5-(benzyloxy)-6-methyl-N-(2-methylpyrimidin-4-yl)-3,4′-bipyridin-2′-amine] — lower, 83%
- CCOC(=O)Nc1cc(-c2cnc(C)c(NS(=O)(=O)N(C)C)c2)ccn1 [Compound I-364, ethyl {5-[(dimethylsulfamoyl)amino]-6-methyl-3,4′-bipyridin-2′-yl}carbamate] — higher, > 99%
- CC(=O)Nc1cc(-c2cncc(S(=O)(=O)N(C)c3ccccc3)c2)ccn1 [Compound I-365, N-{5-[methyl(phenyl)sulfamoyl]-3,4′-bipyridin-2′-yl}acetamide] — higher, > 99%
- CC(=O)Nc1cc(-c2cnc(Cl)c(S(=O)(=O)NC34CC(C3)C4)c2)ccn1 [Compound I-366, N-[5-(bicyclo[1.1.1]pent-1-ylsulfamoyl)-6-chloro-3,4′-bipyridin-2′-yl]acetamide] — higher, > 99%
- CCNC(=O)Nc1cc(-c2ccnc(Nc3ccnc(C)n3)c2)cnc1C [Compound I-367, 1-ethyl-3-{6-methyl-2′-[(2-methylpyrimidin-4-yl)amino]-3,4′-bipyridin-5-yl}urea] — lower, 76%
- Cc1ncc(-c2ccnc(Nc3ccnc(C4CC4)n3)c2)cc1NC(=O)N1CC(F)(F)C1 [Compound I-368, N-(2′-((2-cyclopropylpyrimidin-4-yl)amino)-6-methyl-[3,4′-bipyridin]-5-yl)-3,3-difluoroazetidine-1-carboxamide] — higher, 96%
- Cc1c(-c2ccnc(Nc3ccnc(C4CC4)n3)c2)cnc(Cl)c1C(=O)O [Compound I-369, 6-chloro-2′-((2-cyclopropylpyrimidin-4-yl)amino)-4-methyl-[3,4′-bipyridine]-5-carboxylic acid] — higher, 97%
- CCN(CC)S(=O)(=O)c1cc(-c2ccnc(NC(C)=O)c2)cnc1C [Compound I-370, N-[5-(diethylsulfamoyl)-6-methyl-3,4′-bipyridin-2′-yl]acetamide] — higher, > 99%
- CCCCS(=O)(=O)Nc1cc(-c2ccnc(NC(C)=O)c2)cnc1C [Compound I-373, N-{5-[(butylsulfonyl)amino]-6-methyl-3,4′-bipyridin-2′-yl}acetamide] — higher, > 99%
- CC(=O)Nc1cc(-c2cnc(C)c(NS(=O)(=O)N3CCC(F)(F)CC3)c2)ccn1 [Compound I-374, N-(5-{[(4,4-difluoropiperidin-1-yl)sulfonyl]amino}-6-methyl-3,4′-bipyridin-2′-yl)acetamide] — higher, > 99%
- COc1nc(C)nc(Nc2cc(-c3cnc(C)c(NS(=O)(=O)c4ccc(F)cc4F)c3)ccn2)n1 [Compound I-375, 2,4-difluoro-N-{2′-[(4-methoxy-6-methyl-1,3,5-triazin-2-yl)amino]-6-methyl-3,4′-bipyridin-5-yl}benzenesulfonamide] — higher, 99%

Same assay, conditions: read-out: Percent Inhibition

With `CC(=O)Nc1cc(-c2cnc(C)c(NS(=O)(=O)N3CCCCCC3)c2)ccn1` [Compound I-341, N-{5-[(azepan-1-ylsulfonyl)amino]-6-methyl-3,4′-bipyridin-2′-yl}acetamide] the inhibition at 1.11 µM was greater than 99%.
